Experimental data taken from article PMC7470102, “Synthesis, anticancer evaluation and molecular docking studies of new benzimidazole- 1,3,4-oxadiazole derivatives as human topoisomerase types I poison” (Journal of Enzyme Inhibition and Medicinal Chemistry, 2020).

Experiments:
[1] = tested on: C6 (rat glioma cell line); test: MTT cytotoxicity assay, C6; type: cell-based; conditions: Rattus norvegicus, read-out: IC50 against C6
Description: (§1) The anticancer activity of compounds 5a–5o were screened according to the MTT assays. The MTT assays were performed as previously described[32]^,[33]. Anticancer activity of final compounds was assessed against five different cancer cell lines A549 (lung carcinoma cell line), HeLa (cervical cell line), MCF-7 (human breast adenocarcinoma cell line), HepG2 (human liver carcinoma cell line) and C6 (rat glioma cell line) cell lines as well as NIH3T3 (mouse embryo fibroblast cell line). Doxorubicin and Hoechst 33342 were used as the reference drugs in the MTT assays.
(§2) The benzimidazole-1,3,4-oxadiazole derivatives (5a-5o) were tested their cytotoxic effects in vitro using five cancer cell line A549 (lung carcinoma cell line), HeLa (cervical cell line), MCF-7 (human breast adenocarcinoma cell line), HepG2 (human liver carcinoma cell line) and C6 (rat glioma cell line) cell lines as well as NIH3T3 (mouse embryo fibroblast cell line). Doxorubicin and Hoechst 33342 were used for this study as a reference drugs.

[2] = tested on: NIH3T3 (mouse embryo fibroblast cell line); test: MTT cytotoxicity assay, NIH3T3 healthy cells; type: cell-based; conditions: Mus musculus, read-out: IC50 against NIH3T3
Description: The anticancer activity of compounds 5a–5o were screened according to the MTT assays. The MTT assays were performed as previously described[32]^,[33]. Anticancer activity of final compounds was assessed against five different cancer cell lines A549 (lung carcinoma cell line), HeLa (cervical cell line), MCF-7 (human breast adenocarcinoma cell line), HepG2 (human liver carcinoma cell line) and C6 (rat glioma cell line) cell lines as well as NIH3T3 (mouse embryo fibroblast cell line). Doxorubicin and Hoechst 33342 were used as the reference drugs in the MTT assays. It is crucial that an anticancer agent affects the cancer cell line but having minimal or no side-effect on healthy cells. For this purpose, the cytotoxic effects of the active compounds on the NIH3T3 cell line were investigated (Table 2).

[3] = tested on: HepG2 (human liver carcinoma cell line); test: MTT cytotoxicity assay, HepG2; type: cell-based; conditions: Homo sapiens, read-out: IC50 against HepG2
Description: as §1, §2

Topoisomerase I = molecular target: T1, Topoisomerase I (Homo sapiens, UniProt P11387); test: DNA topoisomerase I assay (relaxation of supercoiled plasmid DNA, agarose gel); type: biochemical; conditions: agarose gel electrophoresis, camptothecin positive control, Figure 12
T1 construct: purchased TopoGen TG1018-2
T1 sequence (P11387 1-765): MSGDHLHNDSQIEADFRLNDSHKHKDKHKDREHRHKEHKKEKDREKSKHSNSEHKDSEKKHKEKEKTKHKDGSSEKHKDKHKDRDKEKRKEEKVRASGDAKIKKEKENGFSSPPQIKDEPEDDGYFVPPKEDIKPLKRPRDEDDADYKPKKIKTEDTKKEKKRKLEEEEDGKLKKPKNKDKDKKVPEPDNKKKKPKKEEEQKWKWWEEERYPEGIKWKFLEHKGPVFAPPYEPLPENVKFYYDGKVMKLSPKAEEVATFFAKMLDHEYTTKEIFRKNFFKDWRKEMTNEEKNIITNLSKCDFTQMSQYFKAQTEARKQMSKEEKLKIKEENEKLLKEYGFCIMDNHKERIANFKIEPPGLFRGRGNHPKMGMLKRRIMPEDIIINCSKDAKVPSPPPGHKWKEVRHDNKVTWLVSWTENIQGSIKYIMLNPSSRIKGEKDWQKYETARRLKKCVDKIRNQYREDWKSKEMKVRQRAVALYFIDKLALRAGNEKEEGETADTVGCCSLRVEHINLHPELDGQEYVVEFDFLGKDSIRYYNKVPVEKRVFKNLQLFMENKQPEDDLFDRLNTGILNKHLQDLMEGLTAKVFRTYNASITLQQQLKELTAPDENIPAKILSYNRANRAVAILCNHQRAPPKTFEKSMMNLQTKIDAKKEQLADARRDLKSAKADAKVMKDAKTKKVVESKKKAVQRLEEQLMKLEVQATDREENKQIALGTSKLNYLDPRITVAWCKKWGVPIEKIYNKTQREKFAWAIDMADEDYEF
Description: The topoisomerase I inhibition activities of final compounds were measured as relaxation of supercoiled plasmid DNA using agarose gel electrophoresis and camptothecin was used as a positive control. The assay was carried out in a final volume of 20 µl reaction volume containing 2 µl of 10xTGS Buffer, 6 µl water, 2 µl supercoiled plasmid DNA, 2 µl test compound, 2 µl of Top1, 2 ul 10% SDS, 2 µl proteinase K, 2 µl DNA loading dye. After incubation of reaction mixtures at 37 °C for 30 min, electrophoresis was done on a 1% agarose gel at a potential 50 V for 75 min using 1xTAE buffer.
To determine whether the DNA intercalation properties of compounds 5a, 5b, 5d, 5e, 5k, 5l, 5n and 5o might result in Topo I inhibition, agarose gel electrophores is assay was performed to evaluate the Topo I inhibitory activity of them via agarose-gel electrophoresis and CPT was used as the positive control. The TopoGEN Topoisomerase I Drug Screening Kit were optimised and implemented to accomplish this goal.
In a previous studies, it was said that the compounds poisoning topoisomerase caused the formation of nick bands in such gel appearances, while the formation of Supercoiled bands was said to be caused by catalytic inhibitors that bound to either DNA or enzyme[40]^,[41].

[4] = tested on: HeLa (cervical cell line); test: MTT cytotoxicity assay, HeLa; type: cell-based; conditions: Homo sapiens, read-out: IC50 against HeLa
Description: as §1, §2

[5] = tested on: MCF-7 (human breast adenocarcinoma cell line); test: MTT cytotoxicity assay, MCF-7; type: cell-based; conditions: Homo sapiens, MCF7, MCF-7 cell line, read-out: IC50 against MCF-7
Description: as §1, §2

MCF-7 cell line = test: Flow cytometric analysis (Annexin V/PI), MCF-7; type: cell-based, human; conditions: MCF-7 cells
Description: Death pathway of the carcinogenic cell lines was detected by Annexin V-FITC Apoptosis Detection Kit (BD, Pharmingen) as reported previously described. […] FCS Express software was used to display the percent of normal and apoptotic cells at different stages. […] The experiments were carried out in triplicates.
Annexin V/PI staining on tested cancer cells treated with the active compounds was performed to investigate induction of apoptosis. […] According to the MTT assay, compound 5n for A549 cell line; compounds 5a, 5d, 5e, 5o for MCF-7 cell line; compound 5k for C6 cell line; compound 5a for HepG2 cell line; compounds 5b, 5l and 5n for HeLa cell line were selected for the flow cytometric analysis. Furthermore, flow cytometry studies were performed for reference drug doxorubicin. Flow cytometric analysis diagrams of tested compounds and doxorubicin at IC50/2, IC50, and 2xIC50 concentrations on cancer cells were presented in Figures 7–11.

[6] = tested on: A549 (lung carcinoma cell line); test: MTT cytotoxicity assay, A549; type: cell-based; conditions: Homo sapiens, A549, MTT assay, read-out: IC50 against A549
Description: as §1, §2

Structure (SMILES) | IC50 [1] | IC50 [2] | IC50 [3] | Topo I inhibition activity (Topoisomerase I) | IC50 [4] | IC50 [5] | percentage of apoptosis (early + late apoptotic cells) (MCF-7 cell line) | melting point | IC50 [6]
O=C(CSc1nnc(-c2ccc3nc(-c4ccc(O)cc4)[nH]c3c2)o1)N1CCN(c2ccccn2)CC1 [5d, 2-((5-(2-(4-Hydroxyphenyl)-1H-benzo[d]imidazol-6-yl)-1,3,4-oxadiazol-2-yl)thio)-1-(4-(pyridin-2-yl)-piperazin-1-yl)-ethane-1-on] | 38.9 ± 1.92 µM | 720.6 ± 5.03 µM | ≥ 100 µM | potent topo I inhibition activity | ≥ 100 µM | 9.15 ± 0.391 µM | 22.3% |  | 
COc1ccc(-c2nc3ccc(-c4nnc(SCC(=O)N5CCN(c6ncccn6)CC5)o4)cc3[nH]2)cc1 [5j, 2-((5-(2-(4-Methoxyphenyl)-1H-benzo[d]imidazol-6-yl)-1,3,4-oxadiazol-2-yl)thio)-1–(4-(pyrimidin-2-yl)-piperazin-1-yl)-ethane-1-on] | ≥ 100 µM |  | ≥ 100 µM |  | ≥ 100 µM | ≥ 100 µM |  | 118.7 to 120.3 °C | ≥ 100 µM
CCOc1ccc(-c2nc3ccc(-c4nnc(SCC(=O)N5CCN(c6ccccc6)CC5)o4)cc3[nH]2)cc1 [5m, 2-((5-(2-(4-Ethoxyphenyl)-1H-benzo [d]imidazol-6-yl)-1,3,4-oxadiazol-2-yl)thio)-1–(4-(phenyl)-piperazin-1-yl)-ethane-1-on] | 32.2 ± 1.55 µM | 52.3 ± 2.51 µM | ≥ 100 µM |  | ≥ 100 µM | ≥ 100 µM |  | 262.5 to 263.9 °C | ≥ 100 µM
COc1ccc(-c2nc3ccc(-c4nnc(SCC(=O)N5CCN(c6ccccn6)CC5)o4)cc3[nH]2)cc1 [5ı, 2-((5-(2-(4-Methoxyphenyl)-1H-benzo[d]imidazol-6-yl)-1,3,4-oxadiazol-2-yl)thio)-1–(4-(pyridin-2-yl)-piperazin-1-yl)-ethane-1-on] | ≥ 100 µM |  | ≥ 100 µM |  | ≥ 100 µM | ≥ 100 µM |  | 168.3 to 170.1 °C | ≥ 100 µM
CCOc1ccc(-c2nc3ccc(-c4nc5cc(N6CCN(C)CC6)ccc5[nH]4)cc3[nH]2)cc1 [Hoechst 33342, reference compound] |  | 7.39 ± 0.269 µM | 27.8 ± 1.19 µM |  | 0.306 ± 0.015 µM | 2.4 ± 0.118 µM |  |  | 
CCOc1ccc(-c2nc3ccc(-c4nnc(SCC(=O)N5CCN(c6ncccn6)CC5)o4)cc3[nH]2)cc1 [5o, 2-((5-(2-(4-Ethoxyphenyl)-1H-benzo[d]imidazol-6-yl)-1,3,4-oxadiazol-2-yl)thio)-1–(4-(pyrimidine-2-yl)-piperazin-1-yl)-ethane-1-on] | 25 ± 1.24 µM | 44.1 ± 2.1 µM | 59.4 ± 2.59 µM | potent topo I inhibition activity | ≥ 100 µM | 6.44 ± 0.287 µM | 8.7% |  | 
COc1ccc(-c2nc3ccc(-c4nnc(SCC(=O)N5CCN(c6ccccc6)CC5)o4)cc3[nH]2)cc1 [5h, 2-((5-(2-(4-Methoxyphenyl)-1H-benzo[d]imidazol-6-yl)-1,3,4-oxadiazol-2-yl)thio)-1–(4-(phenyl)-piperazin-1-yl)-ethane-1-on] | ≥ 100 µM |  | ≥ 100 µM |  | ≥ 100 µM | ≥ 100 µM |  | 166.7 to 169.2 °C | ≥ 100 µM
COc1ccc(-c2nc3ccc(-c4nnc(SCC(=O)N5CCN(C)CC5)o4)cc3[nH]2)cc1 [5f, 2-((5-(2-(4-Methoxyphenyl)-1H-benzo[d]imidazol-6-yl)-1,3,4-oxadiazol-2-yl)thio)-1–(4-methyl-piperazin-1-yl)-ethane-1-on] | ≥ 100 µM |  | ≥ 100 µM |  | ≥ 100 µM | ≥ 100 µM |  | 156.6 to 158.7 °C | ≥ 100 µM
O=C(CSc1nnc(-c2ccc3nc(-c4ccc(O)cc4)[nH]c3c2)o1)N1CCN(c2ccccc2)CC1 [5c, 2-((5–(2-(4-Hydroxyphenyl)-1H-benzo[d]imidazol-6-yl)-1,3,4-oxadiazol-2-yl)thio)-1–(4-(phenyl) -piperazin-1-yl) -ethane-1-on] | ≥ 100 µM | 44.56 ± 0.221 µM | 21.9 ± 0.991 µM |  | 20.3 ± 1.1 µM | ≥ 100 µM |  | 271.1 to 273.4 °C | ≥ 100 µM
CCN1CCN(C(=O)CSc2nnc(-c3ccc4nc(-c5ccc(OC)cc5)[nH]c4c3)o2)CC1 [5g, 2-((5-(2-(4-Methoxyphenyl)-1H-benzo[d]imidazol-6-yl)-1,3,4-oxadiazol-2-yl)thio)-1–(4-ethyl-piperazin-1-yl)-ethane-1-on] | ≥ 100 µM |  | ≥ 100 µM |  | ≥ 100 µM | ≥ 100 µM |  | 180.4 to 181.9 °C | ≥ 100 µM
